What was measured:
[1] = tested on: Vero cells; test: Growth inhibition test on Vero cells (XTT); type: cell-based; settings: 50 μg/mL, 3 days culture, XTT absorbance versus control
Method: As Test Compounds, the compounds of Example 1 and Example 2 and Comparative Compound 1 were used.
The cytotoxicity of the compounds was evaluated using Vero cells. The respective Test Compounds were dissolved in dimethylsulfoxide (DMSO) to prepare solutions at 10 mg/mL. The solutions were diluted with E′MEM with 10% FBS to a final concentration of 50 μg/mL and placed onto a 96-well plate. The cells were suspended in E′MEM with 10% FBS and seeded onto the 96-well plate at 3000 cells/well and then cultured in a CO2 incubator at 37° C. for 3 days. The growth of Vero cells was evaluated by an assay using 2,3-bis-(2-methoxy-4-nitro-5-sulfophenyl)-5-[(phenylamino)carbonyl]-2H-tetrazolium (inner salt) monosodium salt (“XTT”). Namely, an XTT solution containing 1 mg/mL of XTT and 25 μmol/L of phenazine methosulfate (PMS) was added to each well. After incubating in a CO2 incubator for 2 hours, the absorbance at 450 nm (reference at 655 nm) of the respective wells was measured by a microplate reader. The T/C (%) was calculated from the absorbance ratios of the control (without the Compound) and the respective wells.

[2] = Repeated intravenous dose toxicity study in mice (plasma AST, ALT); type: in vivo; settings: ICR male mice, i.v. once daily for 3 days (25 mg/kg or 6.25 mg/kg), day 1 after completion; relative to saline control
Method: As Test Compounds, the compound of Example 3, Comparative Compound 2 and Comparative Compound 3 were used.
A repeated intravenous dose toxicity study was conducted using ICR strain male mice (6 week-old, 5 mice/group). The administration solutions were prepared by adding 3-fold molar amount of hydrochloric acid to the respective Test Compounds, and further adding a sterile physiological saline solution. The compounds of Example 3 and Comparative Compound 2, respectively at 25 mg/kg, and Comparative Compound 1 at 6.25 mg/kg were administered into the tail vein once daily for 3 days. To the control group, a sterile physiological saline solution was administered.
On day 1 after the completion of the administration, each mouse was etherized. Blood samples were taken from the abdominal vein using an injection syringe containing heparin as an anticoagulant (Novo-Heparin 1,000 units for injection, Aventis Pharma Ltd.), and the samples were centrifuged (3,300 rpm, 4° C., 10 min; Kubota Model 5900) to obtain the plasma. The blood biochemical tests with respect to aspartate aminotransferase (AST) and alanine aminotransferase (ALT) for the samples were conducted according to the JSCC consensus measuring method. The values for the Test Compounds and Comparative Compounds were calculated based on the values for the control (administration of a sterile physiological saline solution) as 100.

[3] = biological target: T1, human CYP2D6 (Homo sapiens, UniProt P10635); test: Inhibitory effect on CYP2D6; type: in vitro ADME; settings: for Inhibitory effect on CYP2D6 (in words): microsome from insect cells expressing human CYP2D6, 72 to 0.0329 μmol/L; for IC50: microsome from insect cells expressing human CYP2D6, fluorescent substrate, 37° C. 30 min, 72 to 0.0329 μmol/L
T1 construct: host or cells: insect cells (microsomes)
T1 sequence (P10635 whole entry): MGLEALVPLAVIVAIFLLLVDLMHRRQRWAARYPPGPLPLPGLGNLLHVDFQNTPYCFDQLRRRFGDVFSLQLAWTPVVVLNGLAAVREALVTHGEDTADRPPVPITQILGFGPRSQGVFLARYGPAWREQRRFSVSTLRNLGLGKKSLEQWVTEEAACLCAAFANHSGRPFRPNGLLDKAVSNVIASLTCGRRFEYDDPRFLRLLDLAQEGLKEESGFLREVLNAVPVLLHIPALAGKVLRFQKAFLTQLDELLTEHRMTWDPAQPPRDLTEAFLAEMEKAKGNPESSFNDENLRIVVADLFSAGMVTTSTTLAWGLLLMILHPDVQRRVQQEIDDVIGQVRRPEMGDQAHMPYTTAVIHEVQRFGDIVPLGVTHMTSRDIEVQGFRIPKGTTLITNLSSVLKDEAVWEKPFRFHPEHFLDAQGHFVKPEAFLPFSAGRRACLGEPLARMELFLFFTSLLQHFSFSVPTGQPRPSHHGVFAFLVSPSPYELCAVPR
Method: Inhibitory effects of the compound of Example 3, Comparative Compound 1, Comparative Compound 2 and Comparative Compound 3 on human hepatic drug-metabolizing enzyme CYP2D6 were compared. A microsome prepared from insect cells expressing human CYP2D6 was used, and a substrate was 3-[2-(N,N-diethyl-N-methylammonium)ethyl]-7-methoxy-4-methylcoumarin iodide. The reaction was conducted in a phosphate buffer solution (100 mmol/L, pH 7.4) including final concentrations of 20 nmol/L for the enzyme, 1.5 μmol/L for the substrate, 1.55 mmol/L for nicotinamide adenine dinucleotide phosphate oxidized form (NADP+), 3.3 mmol/L for glucose-6-phosphate, 3.3 mmol/L for magnesium chloride and 0.4 Units/mL for glucose-6-phosphate dehydrogenase (G6PDH). The concentrations of the respective compounds in the reaction solution were prepared in a 3-fold dilution series with a final concentration range of 72 to 0.0329 μmol/L. The reaction solutions were incubated at 37° C. for 30 min. Then the reaction was terminated by a 80% acetonitrile solution (containing tris at a final concentration of 0.1 mol/L), and the enzyme activity was determined by measuring fluorescence with wavelength of 465 nm using excitation wavelength of 400 nm. The inhibitory effect was expressed as IC50. Quinidine was used as a positive control.

[4] = tested on: Candida albicans TIMM 1623; test: Murine Candida infection model (subcutaneous administration); type: in vivo; settings: cyclophosphamide-compromised male mice; 0.1 mg/kg subcutaneously, 4 times; observed 21 days after infection
Method: (§1) As a Test Compound, the compound of Example 3 was used.
Male mice (4 week-old, 5 mice/group) were administered intraperitoneally with 200 mg/kg of cyclophosphamide 4 days before infection and 100 mg/kg on the following day after the infection to obtain transient compromised condition. Candida albicans TIMM 1623 cultured on SDA at 35° C. was suspended in a sterile physiological saline solution to prepare a suspension at 1.5×10^5 cells/mL. Each 0.2 mL of the solution was inoculated into the tail vein of each mouse to induce infection (about 3×10^4 CFU/mouse). The Test Compound was dissolved in a small amount of 0.1 mol/L hydrochloric acid, and the solution was diluted with a sterile physiological saline solution to obtain a 0.01 mg/mL solution. The solution was administered subcutaneously at the dose of 10 mL/kg body weight of mouse (0.1 mg/kg body weight). The administrations were conducted once 2 hours after the infection and once daily for the following consecutive 3 days, totaling 4 times. To a group receiving no Test Compound, an equal amount of a sterile physiological saline solution was administered. Viability of the mice was observed and recorded for 21 days after infection.

[5] = tested on: Aspergillus fumigatus IFM46895; test: Murine Aspergillus infection model (oral administration); type: in vivo; settings: cyclophosphamide-compromised male mice; 10 mg/kg orally, 7 times; observed 21 days after infection
Method: As Test Compounds, the compound of Example 3 and Comparative Compound 1 were used.
(§2) Spores of Aspergillus fumigatus IFM46895 were cultured on a potato dextrose agar medium at 30° C. for a week. The recovered spores were suspended in a sterile physiological saline solution containing 0.05% Tween 80, which was then diluted to prepare an inoculum solution.
(§3) Male mice (4 week-old, 5 mice/group) were administered intraperitoneally with 200 mg/kg of cyclophosphamide 4 days before infection and 100 mg/kg on the following day after the infection to obtain transient compromised condition. Each 0.2 mL of the inoculum solution was inoculated into the tail vein of each mouse to induce infection (about 1×10^5 CFU/mouse). The Test Compounds were dissolved in a small amount of 0.1 mol/L hydrochloric acid, and the solution was diluted with a sterile distilled water to obtain a 1 mg/mL solution. The solution was administered orally at the dose of 10 mL/kg body weight of mouse (10 mg/kg body weight). The administrations were conducted once 2 hours after the infection and once daily for the following 6 days, totaling 7 times. To a group receiving no Test Compounds, an equal amount of a sterile physiological saline solution was administered. Viability of the mice was observed and recorded for 21 days after infection.

[6] = tested on: Aspergillus fumigatus IFM46895; test: Murine Aspergillus infection model (subcutaneous administration); type: in vivo; settings: cyclophosphamide-compromised male mice; 0.3 mg/kg subcutaneously, 7 times; observed 21 days after infection
Method: as §1, §2
as §3, with “Test Compound was” for “Test Compounds were”, “sterile physiological saline solution” for “sterile distilled water”, “a 0.03” for “a 1”, “administered subcutaneously” for “administered orally”, “mouse (0.3” for “mouse (10”, “Test Compound,” for “Test Compounds,”

[7] = Acute toxicity study in mice (oral administration); type: in vivo; settings: male mice, 1000 mg/kg single oral dose
Method: A 100 mg/mL suspension of the compound of Example 3 was prepared with 0.1 mol/L hydrochloric acid. The Test Compound solution was orally administered to male mice (6 week-old, 2 mice/group) at 10 mL/kg (1000 mg/kg body weight) and the mice were observed until day 2 after administration.

[8] = Acute toxicity study in mice (intravenous administration); type: in vivo; settings: male mice, 50 mg/kg single intravenous dose
Method: The compound of Example 3 was dissolved in a small amount of 0.1 mol/L hydrochloric acid, and the solution was diluted with a sterile physiological saline solution to obtain a 5 mg/mL solution. The Test Compound solution was administered intravenously to male mice (4 week-old, 2 mice/group) at 10 mL/kg (50 mg/kg body weight) and the mice were observed until day 2 after administration.

[9] = biological target: T2, human CYP2C19 (Homo sapiens, UniProt P33261); test: Inhibitory effect on CYP2C19; type: in vitro ADME; settings: microsome from insect cells expressing human CYP2C19, dibenzylfluorescein, 37° C. 30 min, 72 to 0.0329 μmol/L
T2 construct: host or cells: insect cells (microsomes)
T2 sequence (P33261 whole entry): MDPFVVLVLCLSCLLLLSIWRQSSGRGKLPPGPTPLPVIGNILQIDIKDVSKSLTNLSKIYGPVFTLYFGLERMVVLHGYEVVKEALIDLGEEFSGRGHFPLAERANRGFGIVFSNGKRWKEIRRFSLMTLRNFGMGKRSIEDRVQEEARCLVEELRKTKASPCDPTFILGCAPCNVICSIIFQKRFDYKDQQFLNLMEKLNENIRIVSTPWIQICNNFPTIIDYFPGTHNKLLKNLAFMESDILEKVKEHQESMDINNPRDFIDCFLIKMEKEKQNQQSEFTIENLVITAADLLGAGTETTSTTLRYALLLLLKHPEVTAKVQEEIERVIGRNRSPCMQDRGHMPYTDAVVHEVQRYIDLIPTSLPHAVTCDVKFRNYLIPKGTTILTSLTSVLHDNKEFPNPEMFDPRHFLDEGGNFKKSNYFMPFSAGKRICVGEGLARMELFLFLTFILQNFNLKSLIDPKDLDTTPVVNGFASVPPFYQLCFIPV
Method: (§4) Inhibitory effects of the compound of Example 3 and Comparative Compound 1 on human hepatic drug-metabolizing enzyme CYP2C19 were compared. A microsome prepared from insect cells expressing human CYP2C19 was used. Dibenzylfluorescein was used as a substrate. The reaction was conducted in a phosphate buffer solution (100 mmol/L, pH 7.4) including final concentrations of 15 nmol/L for the enzyme, 1.0 μmol/L for the substrate, 1.55 mmol/L for nicotinamide adenine dinucleotide phosphate oxidized form (NADP+), 3.3 mmol/L for glucose-6-phosphate, 3.3 mmol/L for magnesium chloride and 0.4 Units/mL for glucose-6-phosphate dehydrogenase (G6PDH). The concentrations of the respective compounds in the reaction solution were prepared in a 3-fold dilution series with a final concentration range of 72 to 0.0329 μmol/L. The reaction solutions were incubated at 37° C. for 30 min. Then the reaction was terminated by a 2 mol/L sodium hydroxide aqueous solution, and the reactant was further incubated at 37° C. for 2 hours. The enzyme activity was determined by measuring fluorescence with wavelength of 535 nm using excitation wavelength of 485 nm. The inhibitory effect was represented as IC50. Tranylcypromine was used as a positive control.

[10] = biological target: T3, human CYP3A4 (Homo sapiens, UniProt P08684); test: Inhibitory effect on CYP3A4; type: in vitro ADME; settings: microsome from insect cells expressing human CYP3A4, dibenzylfluorescein, 37° C. 15 min, 72 to 0.0329 μmol/L
T3 construct: host or cells: insect cells (microsomes)
T3 sequence (P08684 whole entry): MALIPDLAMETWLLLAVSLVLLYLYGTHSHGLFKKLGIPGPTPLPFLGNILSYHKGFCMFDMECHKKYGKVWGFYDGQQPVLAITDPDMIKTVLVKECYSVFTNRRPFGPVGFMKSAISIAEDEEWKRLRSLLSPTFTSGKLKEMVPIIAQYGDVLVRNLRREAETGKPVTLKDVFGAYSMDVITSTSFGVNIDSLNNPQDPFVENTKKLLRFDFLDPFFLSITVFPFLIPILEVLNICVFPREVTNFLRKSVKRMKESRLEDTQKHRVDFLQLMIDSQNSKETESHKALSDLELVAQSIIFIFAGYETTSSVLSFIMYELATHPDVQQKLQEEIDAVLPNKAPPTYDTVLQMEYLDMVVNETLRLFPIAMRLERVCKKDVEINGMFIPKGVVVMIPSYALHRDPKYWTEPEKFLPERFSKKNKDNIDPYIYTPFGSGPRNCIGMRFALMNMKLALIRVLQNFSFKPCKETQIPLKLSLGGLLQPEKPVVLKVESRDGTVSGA
Method: as §4, with “CYP3A4” for “CYP2C19”, “2.5” for “15”, “15” for “30”, “solution” for “reactant”, “expressed” for “represented”, “Clotrimazole” for “Tranylcypromine”

Row | Structure (SMILES) | Cytotoxicity T/C (%) [1] [%] | ALT (alanine aminotransferase) in plasma [2] | AST (aspartate aminotransferase) in plasma [2] | Inhibitory effect on CYP2D6 (in words) [3] | mice survived [5] [%] | IC50 [3] [µM] | IC50 [9] [µM] | IC50 [10] [µM] | other results
1 | CC(C)OC(=O)/N=C(\N)c1ccc(OCCCC2CCN(CCCOc3ccc(/C(N)=N/C(=O)OC(C)C)cc3)CC2)cc1 [Example 2, 4-{3-[4-(3-{4-[amino(isopropoxycarbonylimino)methyl]phenoxy}propyl)-1-piperidinyl]propoxy}-N′-(isopropoxycarbonyl)benzamidine] | 100 |  |  |  |  |  |  |  | 
2 | CCOC(=O)/N=C(\N)c1ccc(OCCCC2CCN(CCCOc3ccc(/C(N)=N/C(=O)OCC)cc3)CC2)cc1 [Comparative Compound 2] |  | increases | increases | inhibited human CYP2D6 |  |  |  |  | 
3 | CCCOC(=O)/N=C(\N)c1ccc(OCCCC2CCN(CCCOc3ccc(/C(N)=N/C(=O)OCCC)cc3)CC2)cc1 [Example 1, 4-{3-[4-(3-{4-[amino(propoxycarbonylimino)methyl]phenoxy}propyl)-1-piperidinyl]propoxy}-N′-(propoxycarbonyl)benzamidine] | 100 |  |  |  |  |  |  |  | 
4 | CCCCOC(=O)N=C(N)c1ccc(OCCCC2CCN(CCCOc3ccc(C(N)=NC(=O)OCCCC)cc3)CC2)cc1 [Example 3, 4-{3-[4-(3-{4-[amino(butoxycarbonylimino)methyl]phenoxy}propyl)-1-piperidinyl]propoxy}-N′-(butoxycarbonyl)benzamidine] |  | No abnormality | No abnormality |  | 80 | > 72 | > 72 | 45.4 | mice survived [4]: 80%; mice survived [6]: 60%; survival until day 2 after administration [7]: all mice survived; survival until day 2 after administration [8]: all mice survived
5 | CCCCCOC(=O)/N=C(\N)c1ccc(OCCCN2CCC(CCCOc3ccc(C(N)NC(=O)OCCCCC)cc3)CC2)cc1 (centres unmarked) [Comparative Compound 3] |  | increases | increases | inhibited human CYP2D6 |  |  |  |  | 
6 | N/C(=N\C(=O)OCc1ccccc1)c1ccc(OCCCN2CCN(CCCOc3ccc(/C(N)=N/C(=O)OCc4ccccc4)cc3)CC2)cc1 [Comparative Compound 1, reference compound] | 1 |  |  |  | 20 | 0.68 | 4.36 | 4.73 | 
